From patent US8217066B2, “Compounds as lysophosphatidic acid receptor antagonists” (Amira Pharmaceuticals, Inc., priority 2009, dated 2012) come the findings set out here.

Bounds are passed on as bounds.

In experiment [1] the test system is A2058 human melanoma cells. As to the kind of experiment: LPA1 chemotaxis assay. In kind it is cell-based. The settings on record: 100 nM LPA, read-out: inhibition of LPA-driven chemotaxis, IC50. As to the method: Chemotaxis of the A2058 human melanoma cells was measured using the Neuroprobe ChemoTx® System plates (8 μm pore size, 5.7 mm diameter sites). The filter sites were coated with 0.001% fibronectin (Sigma) in 20 mM Hepes, pH 7.4 and allowed to dry. A2058 cells were serum-starved for 24 hours, then harvested with Cell Stripper and resuspended in DMEM containing 0.1% fatty-acid-free bovine serum albumin (BSA) to a concentration of 1×10^6/ml. Cells were mixed with an equal volume of test compound (2×) in DMEM containing 0.1% fatty-acid-free BSA and incubated at 37° C. for 15 minutes. LPA (100 nM in DMEM containing 0.1% fatty-acid-free BSA) or vehicle was added to each well of the lower chamber and 50 μl of the cell suspension/test compound mix was applied to the upper portion of the ChemoTx plate. Plates were incubated at 37° C. for three hours and then the cells removed from the upper portion by rinsing with PBS and scraping. The filter was dried then stained with HEMA 3 Staining System (Fisher Scientific). The absorbance of the filter was read at 590 nm and IC50s were determined using Symyx Assay Explorer.

Experiment [2] addresses T1, human LPA1 (Homo sapiens, UniProt Q92633).
T1 construct: the full-length cDNA for human LPA1 was obtained by PCR of the reverse transcription reaction; expressed in transfected cells
As to the kind of experiment: LPA1 calcium flux assay (HLPA1 Ca Flux). The settings on record: CHO cells stably expressing human LPA1, stimulated with 10 nM LPA. Format: cell-based. Here is the method: A 1.1 kb cDNA encoding the human LPA1 receptor was cloned from human lung. Human lung RNA (Clontech Laboratories, Inc. USA) was reverse transcribed using the RETROscript kit (Ambion, Inc.) and the full-length cDNA for human LPA1 was obtained by PCR of the reverse transcription reaction. The nucleotide sequence of the cloned human LPA1 was determined by sequencing and confirmed to be identical to the published human LPA1 sequence (An et al. Biochem. Biophys. Res. Commun. 231:619 (1997). The cDNA was cloned into the pcDNA5/FRT expression plasmid and transfected in CHO cells using lipofectamine 2000 (Invitrogen Corp., USA). Clones stably expressing human LPA1 were selected using hygromycin and identified as cells that show Ca-influx in response to LPA.
Human LPA1 or LPA3 expressing CHO cells are seeded at 20,000-45,000 cells per well in a 96-well poly-D-lysine coated plate one or two days before the assay. Prior to the assay, the cells are washed once with PBS and then cultured in serum-free media overnight. On the day of the assay, a calcium indicator dye (Calcium 4, Molecular Devices) in assay buffer (HBSS with Ca^2+ and Mg^2+ and containing 20 mM Hepes and 0.3% fatty-acid free human serum albumin) is added to each well and incubation continued for 1 hour at 37° C. […] of test compounds in 2.5% DMSO are added to the cells and incubation continued at room temperature for 30 minutes. Cells are the stimulated by the addition of 10 nM LPA and intracellular Ca^2+ measured using the Flexstation 3 (Molecular Devices). IC50s are determined using Graphpad prism analysis of drug titration curves.

T1 sequence (Q92633 whole entry): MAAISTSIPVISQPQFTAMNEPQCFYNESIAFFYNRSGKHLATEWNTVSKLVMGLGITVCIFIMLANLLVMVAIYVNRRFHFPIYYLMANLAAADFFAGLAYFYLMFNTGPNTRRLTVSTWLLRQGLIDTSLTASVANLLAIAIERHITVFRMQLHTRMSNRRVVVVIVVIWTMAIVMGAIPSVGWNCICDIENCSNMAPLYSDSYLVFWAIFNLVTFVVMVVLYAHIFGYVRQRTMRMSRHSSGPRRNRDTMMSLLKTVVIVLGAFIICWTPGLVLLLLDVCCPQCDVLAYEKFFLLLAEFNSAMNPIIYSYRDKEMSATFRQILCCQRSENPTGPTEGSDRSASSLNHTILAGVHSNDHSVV

With `Cc1noc(-c2ccc(-c3ccc(C4(C(=O)O)CC4)cc3)cc2)c1C(O)COCc1ccccc1` (single isomer, unassigned) [Compound 47, 1-{4′-[4-(2-Benzyloxy-1-hydroxy-ethyl)-3-methyl-isoxazol-5-yl]-biphenyl-4-yl}-cyclopropanecarboxylic acid], the IC50 in experiment [1] was under 100 nM. Regarding `Cc1noc(-c2ccc(-c3ccc(C4(C(=O)NS(C)(=O)=O)CC4)cc3)cc2)c1CC(F)(F)CCc1ccccc1` [Compound 75, N-(1-{4′-[4-(2,2-Difluoro-4-phenyl-butyl)-3-methyl-isoxazol-5-yl]-biphenyl-4-yl}-cyclopropanecarbonyl)-methanesulfonamide], the IC50 in experiment [2] was under 300 nM. Consider `Cc1noc(-c2ccc(-c3ccc(C4(C(=O)O)CC4)cc3)cc2)c1C(O)C(F)(F)CCc1ccc(C(F)(F)F)cc1` (stereo not shown) [Compound 64, 1-(4′-{4-[2,2-Difluoro-1-hydroxy-4-(4-trifluoromethyl-phenyl)-butyl]-3-methyl-isoxazol-5-yl}-biphenyl-4-yl)-cyclopropanecarboxylic acid], for which, in experiment [2], the IC50 was under 300 nM. Same read-out and setting: in the case of `Cc1noc(-c2ccc(-c3ccc(C4(C(=O)O)CC4)cc3)cc2)c1CCOCc1ccccc1` [Compound 7, 1-{4′-[4-(2-Benzyloxy-ethyl)-3-methyl-isoxazol-5-yl]-biphenyl-4-yl}-cyclopropanecarboxylic acid] it was under 300 nM; in that of `Cc1noc(-c2ccc(-c3ccc(C4(C(=O)O)CC4)cc3)cc2)c1COCCc1ccccc1` [Compound 8, 1-[4′-(3-Methyl-4-phenethyloxymethyl-isoxazol-5-yl)-biphenyl-4-yl]-cyclopropanecarboxylic acid], under 300 nM; in that of `Cc1noc(-c2ccc(-c3ccc(C4(C(=O)O)CC4)cc3)cc2)c1CCC(O)Cc1ccccc1` (stereo not shown) [Compound 23, 1-{4′-[4-(3-Hydroxy-4-phenyl-butyl)-3-methyl-isoxazol-5-yl]-biphenyl-4-yl}-cyclopropanecarboxylic acid], 300 to 1000 nM. Same read-out and setting: in the case of `Cc1noc(-c2ccc(-c3ccc(C4(C(=O)O)CC4)cc3)cc2)c1CCCCc1ccccc1` [Compound 6, 1-{4′-[3-Methyl-4-(4-phenyl-butyl)-isoxazol-5-yl]-biphenyl-4-yl}-cyclopropanecarboxylic acid] it was under 300 nM.

Turning to `Cc1noc(-c2ccc(-c3ccc(C4(C(=O)O)CC4)cc3)cc2)c1NCCCc1ccccc1` [Compound 2, 1-{4′-[3-Methyl-4-(3-phenyl-propylamino)-isoxazol-5-yl]-biphenyl-4-yl}-cyclopropanecarboxylic acid], the IC50 in experiment [2] was under 300 nM. On the same count and under the same terms, for `Cc1noc(-c2ccc(-c3ccc(C4(C(=O)O)CC4)cc3)cc2)c1C(O)CC(C)(C)Cc1ccccc1` (stereo not shown) [Compound 70, 1-{4′-[4-(1-Hydroxy-3,3-dimethyl-4-phenyl-butyl)-3-methyl-isoxazol-5-yl]-biphenyl-4-yl}-cyclopropanecarboxylic acid] the value was under 300 nM. Still for that read-out and setting: for `Cc1noc(-c2ccc(-c3ccc(C4(C(=O)O)CC4)cc3)cc2)c1NC(C)CCc1cccc(C(F)(F)F)c1` (stereo not shown) [Compound 31, 1-(4′-{3-Methyl-4-[1-methyl-3-(3-trifluoromethyl-phenyl)-propylamino]-isoxazol-5-yl}-biphenyl-4-yl)-cyclopropanecarboxylic acid] the value was under 300 nM. On the same count and under the same terms, in the case of `Cc1noc(-c2ccc(-c3ccc(C4(C(=O)O)CC4)cc3)cc2)c1NC(C)CCc1c(F)cccc1Cl` (stereo not shown) [Compound 55, 1-(4′-{4-[3-(2-Chloro-6-fluoro-phenyl)-1-methyl-propylamino]-3-methyl-isoxazol-5-yl}-biphenyl-4-yl)-cyclopropanecarboxylic acid] it was under 300 nM. `Cc1noc(-c2ccc(-c3ccc(C4(C(=O)O)CC4)cc3)cc2)c1NC(C)CC(C)(C)c1ccccc1` (stereo not shown) [Compound 69, 1-{4′-[4-(1,3-Dimethyl-3-phenyl-butylamino)-3-methyl-isoxazol-5-yl]-biphenyl-4-yl}-cyclopropanecarboxylic acid]: in experiment [2], the IC50 is under 300 nM.

Take `Cc1noc(-c2ccc(-c3ccc(C4(C(=O)O)CC4)cc3)cc2)c1C(O)CSCc1cccc(C(F)(F)F)c1` (stereo not shown) [Compound 63, 1-(4′-{4-[1-Hydroxy-2-(3-trifluoromethyl-benzylsulfanyl)-ethyl]-3-methyl-isoxazol-5-yl}-biphenyl-4-yl)-cyclopropanecarboxylic acid]: in experiment [2], the IC50 is under 300 nM. The same measure, in the same setting: for `COc1ccc(CCC(C)Nc2c(C)noc2-c2ccc(-c3ccc(C4(C(=O)O)CC4)cc3)cc2)cc1` (stereo not shown) [Compound 50, 1-(4′-{4-[3-(4-Methoxy-phenyl)-1-methyl-propylamino]-3-methyl-isoxazol-5-yl}-biphenyl-4-yl)-cyclopropanecarboxylic acid] the value was under 300 nM; for `Cc1noc(-c2ccc(-c3ccc(C4(C(=O)NS(C)(=O)=O)CC4)cc3)cc2)c1C(O)COCCc1ccccc1` (stereo not shown) [Compound 74, N-(1-{4′-[4-(1-Hydroxy-2-phenethyloxy-ethyl)-3-methyl-isoxazol-5-yl]-biphenyl-4-yl}-cyclopropanecarbonyl)-methanesulfonamide], under 300 nM; for `Cc1noc(-c2ccc(-c3ccc(C4(C(=O)O)CC4)cc3)cc2)c1CNCCc1ccccc1` [Compound 5, 1-{4′-[3-Methyl-4-(phenethylamino-methyl)-isoxazol-5-yl]-biphenyl-4-yl}-cyclopropanecarboxylic acid], 300 to 1000 nM. On to `Cc1noc(-c2ccc(-c3ccc(C4(C(=O)O)CC4)cc3)cc2)c1CNCC(O)c1ccccc1` (stereo not shown) [Compound 12, 1-(4′-{4-[(2-Hydroxy-2-phenyl-ethylamino)-methyl]-3-methyl-isoxazol-5-yl}-biphenyl-4-yl)-cyclopropanecarboxylic acid], for which the IC50 in experiment [2] fell in the range of 1000 to 50000 nM.

For the compound `Cc1noc(-c2ccc(-c3ccc(C4(C(=O)O)CC4)cc3)cc2)c1CCOCc1cccc(Cl)c1` [Compound 16, 1-(4′-{4-[2-(3-Chloro-benzyloxy)-ethyl]-3-methyl-isoxazol-5-yl}-biphenyl-4-yl)-cyclopropanecarboxylic acid], the IC50 in experiment [2] was under 300 nM.

On to `Cc1noc(-c2ccc(-c3ccc(C4(C(=O)O)CC4)cc3)cc2)c1C(O)CNCc1ccccc1` (stereo not shown) [Compound 29, 1-{4′-[4-(2-Benzylamino-1-hydroxy-ethyl)-3-methyl-isoxazol-5-yl]-biphenyl-4-yl}-cyclopropanecarboxylic acid], for which, in experiment [2], the IC50 was under 300 nM. On the same count and under the same terms, for `Cc1noc(-c2ccc(-c3ccc(C4(C(=O)O)CC4)cc3)cc2)c1COC(C)Cc1ccccc1` (stereo not shown) [Compound 9, 1-{4′-[3-Methyl-4-(1-methyl-2-phenyl-ethoxymethyl)-isoxazol-5-yl]-biphenyl-4-yl}-cyclopropanecarboxylic acid] the value was under 300 nM; for `Cc1noc(-c2ccc(-c3ccc(C4(C(=O)O)CC4)cc3)cc2)c1C(O)C(C)(C)CCc1ccccc1` (stereo not shown) [Compound 45, 1-{4′-[4-(1-Hydroxy-2,2-dimethyl-4-phenyl-butyl)-3-methyl-isoxazol-5-yl]-biphenyl-4-yl}-cyclopropanecarboxylic acid], under 300 nM; for `Cc1noc(-c2ccc(-c3ccc(C4(C(=O)O)CC4)cc3)cc2)c1C(O)COCCc1ccccc1` (stereo not shown) [Compound 59, 1-{4′-[4-(1-Hydroxy-2-phenethyloxy-ethyl)-3-methyl-isoxazol-5-yl]-biphenyl-4-yl}-cyclopropanecarboxylic acid], under 300 nM. On the same count and under the same terms, for `Cc1noc(-c2ccc(-c3ccc(C4(C(=O)O)CC4)cc3)cc2)c1C(O)CCc1cccc(C(F)(F)F)c1` (stereo not shown) [Compound 35, 1-(4′-{4-[1-Hydroxy-3-(3-trifluoromethyl-phenyl)-propyl]-3-methyl-isoxazol-5-yl}-biphenyl-4-yl)-cyclopropanecarboxylic acid] the value was under 300 nM.

With `Cc1noc(-c2ccc(-c3ccc(C4(C(=O)NS(C)(=O)=O)CC4)cc3)cc2)c1CSCCc1ccccc1` [Compound 71, N-[1-[4′-(3-Methyl-4-phenethylsulfanylmethyl-isoxazol-5-yl)-biphenyl-4-yl]-cyclopropanecarbonyl]-methanesulfonamide], the IC50 in experiment [2] is under 300 nM.

On to `Cc1noc(-c2ccc(-c3ccc(C4(C(=O)O)CC4)cc3)cc2)c1C(F)(F)CCCc1ccccc1` [Compound 46, 1-{4′-[4-(1,1-Difluoro-4-phenyl-butyl)-3-methyl-isoxazol-5-yl]-biphenyl-4-yl}-cyclopropanecarboxylic acid], for which the concentration for half-maximal inhibition (IC50) in experiment [2] lay within 1000 to 50000 nM.

For orientation: IC50 means the midpoint of a concentration-inhibition curve.
